Laboratory results reported in patent publication US7658943B2, “Oral pharmaceutical composition for soft capsules containing vinorelbine and method of treatment” (R.P. Scherer Technologies, LLC, priority 2002, dated 2010).
Read-outs that look alike come from different tables or passages of the source.

Columns and labels:
[1] = Storage stability: impurity content by HPLC; format: physicochemical; details: 5° C.±3° C.
Protocol: The HPLC chromatographic method used included an assembly fitted with an automatic injector and variable wavelength UV detector set at 267 nm. The column was stainless steel with a length of 150 mm and diameter of 3.9 mm and filled with octadecylsilyl silica gel—300 Å—spherical, 5 μm. The mobile phase was carried out with sodium decanesulfonate (1.2217 g), phosphate buffer 0.05 M (pH=4.2) 380 ml, and methanol (620 ml), with a thermostatically-controlled column temperature of +40° C. and a mobile phase flow rate of 1 ml/min.
Each batch was stored over the analysis time at 5° C.±3° C.

[2] = 5° C.±3° C., aqueous vinorelbine 10 mg/ml as base
Protocol: In this experiment, pure powder form vinorelbine was compared to soft capsule encapsulated vinorelbine liquid fill composition of the invention (Formula 1.). Coloration was measured at 5° C.±3° C. by ultraviolet absorbance at 420 nm of aqueous vinorelbine at 10 mg/ml expressed as vinorelbine base. […] Mean variation was calculated as from the difference between the average of the results at the per given analysis time and the average of the results at the initial time (t0) for several batches (3 batches for the vinorelbine powder, 3 batches for the 20 mg soft capsules, 4 batches for the 30 mg soft capsules, 3 batches for the 40 mg soft capsules, 3 batches for the 80 mg soft capsules.)

Impurity content, max. variation (t0→analysis time) ([1]; 6 months): 0.21 Relative Area Percent | Impurity content, mean variation (t0→analysis time) ([1]; 6 months): 0.12 Relative Area Percent | Impurity content, max. variation (t0→analysis time) ([1]; 12 months): 0.44 Relative Area Percent | Impurity content, mean variation (t0→analysis time) ([1]; 12 months): 0.39 Relative Area Percent | Impurity content, max. variation (t0→analysis time) ([1]; 18 months): 0.85 Relative Area Percent | Impurity content, mean variation (t0→analysis time) ([1]; 18 months): 0.78 Relative Area Percent | Impurity content, max. variation (t0→analysis time) ([1]; 24 months): 1.32 Relative Area Percent | Impurity content, mean variation (t0→analysis time) ([1]; 24 months): 1.13 Relative Area Percent | Color evolution (absorbance at 420 nm), max. variation (t0→analysis time) ([2]; 6 months): 0.012 | Color evolution (absorbance at 420 nm), mean variation (t0→analysis time) ([2]; 6 months): 0.006 | Color evolution (absorbance at 420 nm), max. variation (t0→analysis time) ([2]; 12 months): 0.015 | Color evolution (absorbance at 420 nm), mean variation (t0→analysis time) ([2]; 12 months): 0.013 | Color evolution (absorbance at 420 nm), max. variation (t0→analysis time) ([2]; 18 months): 0.025 | Color evolution (absorbance at 420 nm), mean variation (t0→analysis time) ([2]; 18 months): 0.017 | Color evolution (absorbance at 420 nm), max. variation (t0→analysis time) ([2]; 24 months): 0.041 | Color evolution (absorbance at 420 nm), mean variation (t0→analysis time) ([2]; 24 months): 0.029
SMILES: CCC1=C[C@@H]2CN(C1)Cc1c([nH]c3ccccc13)[C@@](C(=O)OC)(c1cc3c(cc1OC)N(C)[C@H]1[C@@](O)(C(=O)OC)[C@H](OC(C)=O)[C@]4(CC)C=CCN5CC[C@]31[C@@H]54)C2 [Vinorelbine (powder), 3′,4′-didehydro-4′-deoxy-C′-norvincaleucoblastine]
